Assay results: patent US6903130B1, “Pyrrolidineacetamide derivative alone or in combination for treatment of cns disorders” (UCB S.A., priority 1999, dated 2005)
Like-named read-outs stand apart in the source and are kept apart here.

How the values were obtained:
[1] = system: amygdala-kindled rats; assay: Rotarod test in amygdala-kindled rats
Experimental: Levetiracetam and valproate, in a dose-volume of 5 ml/kg body weight, were administered intraperitoneally 60 and 30 minutes, respectively, before the induction of kindling or the measurement of rotarod performance. Levetiracetam ([…]) and sodium valproate (50, 100, 150, 200 and 300 mg/kg) were both dissolved in 0.9% NaCl to give solutions of pH 5.9 and 6.3, respectively. Control rats received an equivalent dose-volume of the appropriate vehicle.
The amygdala-kindled rats (n=8) were also tested on a rotating rod. The animals were pretreated with i.p. administrations of levetiracetam and valproate 60 and 30 minutes, respectively, before testing, Only animals that were unable to remain on the rod after three subsequent 1-minute attempts were considered as having an impaired performance. Results were analyzed as described in example 1.

[2] = system: sound-sensitive mice; assay: Audiogenic seizure testing, protection against clonic convulsions; format: in vivo, mouse; conditions: for ED50: Mus musculus, ip, read-out: ED50, protection against audiogenic-induced clonic convulsions
Excerpt: The purpose of this study was to evaluate the effect of levetiracetam on the anticonvulsivant potency of valproate in sound sensitive mice, a genetic animal model with reflex seizures. In this model of generalized epilepsy, seizures can be evoked without electrical or chemical stimulation and seizure types, at least in part, are similar in their clinical phenomenology to seizures occurring in man (Löscher W. & Schmidt D., Epilepsy Res. (1988), 2, 145-181; Buchhalter J. R., Epilepsia (1993), 34, S31-S41).
The experimental design consisted of one group receiving vehicles, another group receiving levetiracetam alone at a dose of 5.5 mg/kg and the other groups receiving different doses of valproate alone or in combination with levetiracetam. Levetiracetam alone was also tested. […] Levetiracetam and sodium valproate were both dissolved in 0.9% saline solution, to give solutions of pH 6.4 and 6.2, respectively.
The proportion of mice protected against clonic convulsions was calculated and used as the end point for the anticonvulsant activity.
Methods used for calculation and statistical analysis are described hereafter: • A response to drug treatment was expressed as the proportion of animals protected against induced convulsions, or showing an impairment of the rotarod performance, at each individual dose. […] From these formulations, the dose of valproate, considered as expected value, that should be associated to a constant dose of levetiracetam in order to afford 50% of protection, may be calculated as: [formula] for the additive model [formula] for the independent model.
These calculated doses (Vm50 expected) may then be compared to the observed doses of valproate which, in combination with a constant dose of levetiracetam, induce an effect corresponding to 50% protection (Vm50 observed). […]

[3] = system: amygdala-kindled rats; assay: Protection against secondarily generalized motor seizures in amygdala-kindled rats; format: in vivo, rat; conditions: for ED50: Rattus norvegicus, ip, read-out: ED50, protection against secondarily generalized motor seizures
Excerpt: The purpose of this study was to evaluate the pharmacodynamic interaction between valproate levetiracetam in preventing secondarily generalized motor seizures in amygdala-kindled rats, a model that has repeatedly been proposed to reflect complex partial seizures with secondarily generalization in man ([…]. & al., Exp. Neurol. […] McNamara J. O., Ann. of Neurol. (1984), 16 (suppl.), […]-[…]). In this model, focal electrical kindling of amygdala in rats induces the development of electrical seizure activity ([…] amygdala and behavioral seizures, generally evolving through facial clonus, head nodding, forelimb clonus, rearing and fully kindled seizures with rearing and falling accompanied by generalized clonic seizures (Racine R. J., Electroencephalogr. Clin. Neurophysiol. (1972), 32, 281-294). […] Neurol. […] Two days later, drugs were tested. The behavioral effect of stimulation was graded according to the score of Racine (Racine R. J., Electroencephalogr. Clin. Neurophysiol. (1972), 32, 281-294).

[4] = compound alone, i.p., LOGIT-LOG DOSE regression

Structure (SMILES)	impairment of rotarod performance (in words) ([1]; levetiracetam alone 108, 170 and 540 mg/kg i.p.)	ED50 [2] [mg/kg]	animals protected against audiogenic-induced clonic convulsions ([2]; levetiracetam 5.5 mg/kg i.p. alone, inferred from dose-response relation) [%]	ED50 [3] [mg/kg]	Calculated proportion of animals protected ([3]; levetiracetam 17 mg/kg alone) [%]	Calculated proportion of animals protected ([3]; levetiracetam 54 mg/kg alone) [%]	Calculated proportion of animals protected ([3]; levetiracetam 108 mg/kg alone) [%]	Impairment in the performance within the rotarod test ([1]; valproate 197 mg/kg + saline (treatment protecting 50% of the rats)) [%]	ED50 [2, 4] [mg/kg]	ED50 [3, 4] [mg/kg]
CC[C@@H](C(N)=O)N1CCCC1=O [Levetiracetam, (S)-(−)α-ethyl-2-oxo-1-pyrrolidineacetamide]	None of the three doses of levetiracetam tested (108, 170 and 540 mg/kg) impaired the performance	10	20	307	7	18	28.5	–	–	–
CCCC(CCC)C(=O)[O-].[Na+] [Valproate, sodium valproate]	–	–	–	–	–	–	–	46	122	197
